Experimental data reported in US8614327B2 (Vertex Pharmaceuticals Incorporated, priority 2004, dated 2013).

Target: T1, ΔF508-CFTR (Homo sapiens, UniProt P13569, DEL508-508)
T1 construct: expressed in transfected cells
Experiment: Membrane potential optical (FRET/VIPR) assay, identification of potentiator compounds
Type: cell-based
Conditions: Table 3, assay not given; for % Activity: relative efficacy
Outline: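 Double-addition potentiator screen: compound delivered in gluconate-substituted Cl^--free medium, membrane potential followed via CC2-DMPE/DiSBAC2(3) FRET on VIPR. Cells were ΔF508-CFTR-expressing NIH3T3 mouse fibroblasts, held 2 h at 37° C. then 24 h at 27° C. before assay.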

T1 sequence (P13569 with tags, fused parts or gaps DEL508-508): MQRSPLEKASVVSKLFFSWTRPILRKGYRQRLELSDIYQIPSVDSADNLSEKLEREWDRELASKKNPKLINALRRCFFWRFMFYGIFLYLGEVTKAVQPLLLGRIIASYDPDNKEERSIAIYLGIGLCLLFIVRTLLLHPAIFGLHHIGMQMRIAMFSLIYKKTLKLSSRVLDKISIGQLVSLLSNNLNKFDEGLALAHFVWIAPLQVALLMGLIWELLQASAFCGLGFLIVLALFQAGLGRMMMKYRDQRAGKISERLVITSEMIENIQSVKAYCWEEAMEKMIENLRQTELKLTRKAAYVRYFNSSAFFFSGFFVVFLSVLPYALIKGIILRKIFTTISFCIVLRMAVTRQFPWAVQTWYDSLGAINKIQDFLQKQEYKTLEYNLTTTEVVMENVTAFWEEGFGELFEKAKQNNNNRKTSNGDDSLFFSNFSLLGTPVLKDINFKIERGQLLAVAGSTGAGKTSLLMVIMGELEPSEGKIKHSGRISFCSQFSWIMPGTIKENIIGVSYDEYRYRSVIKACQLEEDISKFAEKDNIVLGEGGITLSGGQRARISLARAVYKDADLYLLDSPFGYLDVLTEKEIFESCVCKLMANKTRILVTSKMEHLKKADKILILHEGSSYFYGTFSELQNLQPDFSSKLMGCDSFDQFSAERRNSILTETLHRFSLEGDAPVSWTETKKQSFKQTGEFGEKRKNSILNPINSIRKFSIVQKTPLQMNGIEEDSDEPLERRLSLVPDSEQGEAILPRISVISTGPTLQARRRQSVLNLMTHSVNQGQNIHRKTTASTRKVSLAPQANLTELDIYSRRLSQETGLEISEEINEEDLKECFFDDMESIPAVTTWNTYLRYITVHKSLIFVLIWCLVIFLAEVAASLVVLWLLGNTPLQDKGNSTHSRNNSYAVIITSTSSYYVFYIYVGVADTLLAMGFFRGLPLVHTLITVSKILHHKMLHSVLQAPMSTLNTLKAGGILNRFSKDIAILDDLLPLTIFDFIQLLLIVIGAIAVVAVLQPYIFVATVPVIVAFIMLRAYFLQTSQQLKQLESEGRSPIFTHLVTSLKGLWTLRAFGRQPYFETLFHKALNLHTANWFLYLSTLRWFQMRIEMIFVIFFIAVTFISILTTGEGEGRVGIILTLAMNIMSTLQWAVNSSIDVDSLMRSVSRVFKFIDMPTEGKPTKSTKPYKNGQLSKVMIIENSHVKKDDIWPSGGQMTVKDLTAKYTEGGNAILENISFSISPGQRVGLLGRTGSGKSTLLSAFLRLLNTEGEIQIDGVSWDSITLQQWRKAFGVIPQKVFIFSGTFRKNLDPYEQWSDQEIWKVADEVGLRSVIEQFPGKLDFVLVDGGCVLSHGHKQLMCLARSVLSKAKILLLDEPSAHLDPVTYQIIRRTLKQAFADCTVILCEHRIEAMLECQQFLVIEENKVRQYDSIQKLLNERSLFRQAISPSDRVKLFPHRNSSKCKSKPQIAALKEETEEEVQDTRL

O=C(Nc1ccccc1-c1ccc(F)cc1)c1c[nH]c2ccccc2c1=O [Compound 182, N-[2-(4-fluorophenyl)phenyl]-4-oxo-1H-quinoline-3-carboxamide] was tested, and the EC50 was less than 10 µM and the “% Activity” value was “++ (between 25% to 100%)”.
CC(C)(C)c1ccc(NC(=O)c2c[nH]c3ccccc3c2=O)cc1C#N [Compound 13, N-(3-cyano-4-tert-butyl-phenyl)-4-oxo-1H-quinoline-3-carboxamide] was tested, and the EC50 was less than 10 µM and the “% Activity” value was “++ (between 25% to 100%)”.
For Cc1cccc(-c2ccccc2NC(=O)c2c[nH]c3ccccc3c2=O)c1C [Compound 401, N-[2-(2,3-dimethylphenyl)phenyl]-4-oxo-1H-quinoline-3-carboxamide], the EC50 was less than 10 µM and the “% Activity” value was “++ (between 25% to 100%)”.
With Cc1ccc2c(=O)c(C(=O)Nc3ccc(N4CCC[C@@H]4C)cc3C(F)(F)F)c[nH]c2c1 [Compound 607, (S)-7-methyl-N-(4-(2-methylpyrrolidin-1-yl)-2-(trifluoromethyl)phenyl)-4-oxo-1,4-dihydroquinoline-3-carboxamide] the EC50 was less than 10 µM and the “% Activity” value was “++ (between 25% to 100%)”.
With Cc1cccc2[nH]cc(C(=O)Nc3cc4[nH]ccc4cc3C(C)(C)C)c(=O)c12 [Compound 565, 5-methyl-4-oxo-N-(5-tert-butyl-1H-indol-6-yl)-1H-quinoline-3-carboxamide] the EC50 was less than 10 µM and the “% Activity” value was “++ (between 25% to 100%)”.
With O=C(Nc1ccccc1-c1ccco1)c1c[nH]c2ccccc2c1=O [Compound 115, N-[2-(2-furyl)phenyl]-4-oxo-1H-quinoline-3-carboxamide] the EC50 was less than 10 µM and the “% Activity” value was “++ (between 25% to 100%)”.
In the case of COCCn1ccc2cc(C(F)(F)F)c(NC(=O)c3c[nH]c4ccc(F)cc4c3=O)cc21 [Compound 566, 6-fluoro-N-[1-(2-methoxyethyl)-5-(trifluoromethyl)indol-6-yl]-4-oxo-1H-quinoline-3-carboxamide], the EC50 is reported as less than 10 µM and the “% Activity” value is reported as “++ (between 25% to 100%)”.
With O=C(Nc1ccccc1-c1ccccc1C(F)(F)F)c1c[nH]c2ccccc2c1=O [Compound 11, 4-oxo-N-[2-[2-(trifluoromethyl)phenyl]phenyl]-1H-quinoline-3-carboxamide] the EC50 was less than 10 µM and the “% Activity” value was “++ (between 25% to 100%)”.
CCc1cccc2c(=O)c(C(=O)Nc3ccc(C(C)C)cc3C(F)(F)F)c[nH]c12 [Compound 682, 8-ethyl-N-[4-isopropyl-2-(trifluoromethyl)phenyl]-4-oxo-1H-quinoline-3-carboxamide] was tested, and the EC50 was less than 10 µM and the “% Activity” value was “+ (<25%)”.
In the case of CC(C)(C)c1cc(C(F)(F)F)c(NC(=O)c2c[nH]c3cccc(O)c3c2=O)cc1O [Compound 487, 5-hydroxy-N-[5-hydroxy-4-tert-butyl-2-(trifluoromethyl)phenyl]-4-oxo-1H-quinoline-3-carboxamide], the EC50 is reported as less than 10 µM and the “% Activity” value is reported as “++ (between 25% to 100%)”.
COc1nc2ccccc2c(OC)c1C(=O)Nc1cc(NC(=O)OC(C)(C)C)ccc1C(C)(C)C [Compound 39, [3-[(2,4-dimethoxy-3-quinolyl)carbonylamino]-4-tert-butyl-phenyl]aminoformic acid tert-butyl ester] was tested, and the EC50 was 10 to 25 µM and the “% Activity” value was “++ (between 25% to 100%)”.
In the case of Cc1ccccc1Oc1ccccc1NC(=O)c1c[nH]c2ccccc2c1=O [Compound 20, N-[2-(2-methylphenoxy)phenyl]-4-oxo-1H-quinoline-3-carboxamide], the EC50 is reported as less than 10 µM and the “% Activity” value is reported as “++ (between 25% to 100%)”.
For CCOc1ccccc1-c1ccc(N)cc1NC(=O)c1c[nH]c2ccccc2c1=O [Compound 393, N-[5-amino-2-(2-ethoxyphenyl)-phenyl]-4-oxo-1H-quinoline-3-carboxamide], the EC50 was less than 10 µM and the “% Activity” value was “++ (between 25% to 100%)”.
For CC(=O)N1CCc2ccc(NC(=O)c3c[nH]c4ccccc4c3=O)cc21 [Compound 233, N-(1-acetylindolin-6-yl)-4-oxo-1H-quinoline-3-carboxamide], the EC50 was 10 to 25 µM and the “% Activity” value was “+ (<25%)”.
For O=C(Nc1ccccc1-c1cccc(F)c1F)c1c[nH]c2ccccc2c1=O [Compound 285, N-[2-(2,3-difluorophenyl)phenyl]-4-oxo-1H-quinoline-3-carboxamide], the EC50 was less than 10 µM and the “% Activity” value was “++ (between 25% to 100%)”.
In the case of CCc1ccc(N(C)C)cc1NC(=O)c1c[nH]c2ccccc2c1=O [Compound 409, N-(5-dimethylamino-2-ethyl-phenyl)-4-oxo-1H-quinoline-3-carboxamide], the EC50 is reported as less than 10 µM and the “% Activity” value is reported as “++ (between 25% to 100%)”.
With CN(C)[C@@H]1CCN(c2ccc(NC(=O)c3c[nH]c4ccccc4c3=O)c(C(F)(F)F)c2)C1 [Compound 534, (R)-N-(4-(3-(dimethylamino)pyrrolidin-1-yl)-2-(trifluoromethyl)phenyl)-4-oxo-1,4-dihydroquinoline-3-carboxamide] the EC50 was less than 10 µM and the “% Activity” value was “++ (between 25% to 100%)”.
CC(C)(C)c1cc2cc[nH]c2cc1NC(=O)c1c[nH]c2cc(C#N)ccc2c1=O [Compound 558, 7-cyano-4-oxo-N-(5-tert-butyl-1H-indol-6-yl)-1H-quinoline-3-carboxamide] was tested, and the EC50 was less than 10 µM and the “% Activity” value was “++ (between 25% to 100%)”.
In the case of COC(=O)Nc1cc(NC(=O)c2c[nH]c3ccccc3c2=O)ccc1C(C)(C)C [Compound 14, [5-[(4-oxo-1H-quinolin-3-yl)carbonylamino]-2-tert-butyl-phenyl]aminoformic acid methyl ester], the EC50 is reported as less than 10 µM and the “% Activity” value is reported as “++ (between 25% to 100%)”.
With Cc1cc(C)c(NC(=O)c2c[nH]c3ccccc3c2=O)c(C)c1 [Compound 50, 4-oxo-N-(2,4,6-trimethylphenyl)-1H-quinoline-3-carboxamide] the EC50 was less than 10 µM and the “% Activity” value was “++ (between 25% to 100%)”.
COc1ccc(Cl)cc1-c1ccccc1NC(=O)c1c[nH]c2ccccc2c1=O [Compound 202, N-[2-(5-chloro-2-methoxy-phenyl)phenyl]-4-oxo-1H-quinoline-3-carboxamide] was tested, and the EC50 was less than 10 µM and the “% Activity” value was “++ (between 25% to 100%)”.
For CCOc1ccc2[nH]cc(C(=O)Nc3cc(O)c(C(C)(C)C)cc3C(C)(C)C)c(=O)c2c1 [Compound 524, 6-ethoxy-N-(5-hydroxy-2,4-ditert-butyl-phenyl)-4-oxo-1H-quinoline-3-carboxamide], the EC50 was less than 10 µM and the “% Activity” value was “++ (between 25% to 100%)”.
With O=C(Nc1cccc2cc[nH]c12)c1c[nH]c2ccccc2c1=O [Compound 37, N-(1H-indol-7-yl)-4-oxo-1H-quinoline-3-carboxamide] the EC50 was less than 10 µM and the “% Activity” value was “++ (between 25% to 100%)”.
With O=C(Nc1ccc(N2CCCC2)cc1C(F)(F)F)c1c[nH]c2ccccc2c1=O [Compound 658, 4-oxo-N-[4-pyrrolidin-1-yl-2-(trifluoromethyl)phenyl]-1H-quinoline-3-carboxamide] the EC50 was less than 10 µM and the “% Activity” value was “++ (between 25% to 100%)”.
In the case of CC(C)(C)c1cc2cc[nH]c2cc1NC(=O)c1c[nH]c2ccc(F)cc2c1=O [Compound 124, 6-fluoro-4-oxo-N-(5-tert-butyl-1H-indol-6-yl)-1H-quinoline-3-carboxamide], the EC50 is reported as less than 10 µM and the “% Activity” value is reported as “+++ (>100%)”.
For O=C(Nc1ccc(Oc2cccnc2)cc1)c1c[nH]c2ccccc2c1=O [Compound 614, 4-oxo-N-[4-(3-pyridyloxy)phenyl]-1H-quinoline-3-carboxamide], the EC50 was less than 10 µM and the “% Activity” value was “++ (between 25% to 100%)”.
